Experimental data taken from patent publication US10155021B2, “Antimicrobial 4-oxoquinolizines” (Emergent Product Development Gaithersburg Inc., priority 2011, dated 2018).
Converted amounts (≈) assume the structure as drawn. Read-outs that look alike come from different tables or passages of the source.

What was measured:
[1] = tested on: Acinetobacter sp. (H064200250); assay: Preliminary MBC without and with sub-inhibitory polymyxin B (Example 4); type: cell-based; conditions: Acinetobacter, without polymyxin B, preliminary MBC, read-out: MBC without PB
Protocol: The plates were incubated for 18-20 hours at 37° C. The MBC was read as the lowest concentration at which colony growth was ca. 90% less than the positive control (i.e. usually where single colonies or no colonies were observed).

[2] = tested on: A. baumannii A390; assay: MIC without and with sub-inhibitory polymyxin B (Example 4); type: cell-based, Acinetobacter baumannii; conditions: Acinetobacter baumannii, A390, A. baumannii A390, without polymyxin B, read-out: MIC without PB
[3] = tested on: A. baumannii A472; assay: MIC determination for Acinetobacter strains (Example 3); type: cell-based; conditions: LEV R, CIP R, MRP I, IMP I, AMK R, TET R
[4] = tested on: A. baumannii A387; assay: MIC without and with sub-inhibitory polymyxin B (Example 4); type: cell-based, Acinetobacter baumannii; conditions: Acinetobacter baumannii, A387, A. baumannii A387; without polymyxin B; 2nd experiment; visual reading; read-out: MIC without PB
[5] = tested on: A. baumannii A387; assay: Preliminary MBC without and with sub-inhibitory polymyxin B (Example 4); type: cell-based, Acinetobacter baumannii; conditions: Acinetobacter baumannii, A387, A. baumannii A387, without polymyxin B, 2nd experiment, read-out: MBC without PB
[6] = tested on: Acinetobacter sp. (H064200250); assay: MIC without and with sub-inhibitory polymyxin B (Example 4); type: cell-based; conditions: Acinetobacter, without polymyxin B, read-out: MIC without PB
[7] = tested on: A. baumannii A489; assay: MIC determination for Acinetobacter strains (Example 3); type: cell-based; conditions: LEV R, CIP R, MRP R, IMP R, AMK R, TET R
[8] = tested on: A. baumannii A 401; assay: as above; type: cell-based; conditions: A401, LEV R, CIP R, AMK R, TET R
[9] = tested on: A. baumannii A472; assay: Preliminary MBC without and with sub-inhibitory polymyxin B (Example 4); type: cell-based, Acinetobacter baumannii; conditions: Acinetobacter baumannii, A472, A. baumannii A472, without polymyxin B, read-out: MBC without PB
[10] = tested on: A. baumannii A489; assay: MIC without and with sub-inhibitory polymyxin B (Example 4); type: cell-based, Acinetobacter baumannii; conditions: Acinetobacter baumannii, A489, A. baumannii A489, without polymyxin B
[11] = tested on: A. baumannii ATCC 19606; assay: as above; type: cell-based, Acinetobacter baumannii; conditions: Acinetobacter baumannii, ATCC19606, A. baumannii ATCC 19606; without polymyxin B; 2nd experiment; second reading marked *, mark not explained; read-out: MIC without PB, value in parentheses marked *
[12] = tested on: A. baumannii A390; assay: MIC determination for Acinetobacter strains (Example 3); type: cell-based; conditions: LEV R, CIP R, MRP R, IPM I, AMK R, TET I
[13] = tested on: A. baumannii A401; assay: Preliminary MBC without and with sub-inhibitory polymyxin B (Example 4); type: cell-based, Acinetobacter baumannii; conditions: Acinetobacter baumannii, A401, A baumannii A 401; without polymyxin B; preliminary MBC; 1st experiment; read-out: MBC without PB
[14] = tested on: A. baumannii A489; assay: as above; type: cell-based, Acinetobacter baumannii; conditions: Acinetobacter baumannii, A489, A. baumannii A489, without polymyxin B, read-out: MBC without PB
[15] = tested on: A. baumannii A473; assay: MIC determination for Acinetobacter strains (Example 3); type: cell-based; conditions: LEV R, CIP R, MRP R, IMP R, AMK R, TET R
[16] = tested on: A. baumannii A401; assay: MIC without and with sub-inhibitory polymyxin B (Example 4); type: cell-based, Acinetobacter baumannii; conditions: Acinetobacter baumannii, A401, A baumannii A 401, without polymyxin B, read-out: MIC without PB
[17] = tested on: A. baumannii A329; assay: as above; type: cell-based, Acinetobacter baumannii; conditions: Acinetobacter baumannii, A329, read-out: MIC +0.06 μg/ml PB, read with alamar blue, A. baumannii A329; +0.06 μg/ml polymyxin B; 2nd experiment; MIC read with alamar blue
[18] = tested on: 11 strains of A. baumannii and one strain of Acinetobacter sp.; assay: Preliminary MBC without and with sub-inhibitory polymyxin B, whole panel (Example 4; also strains not listed separately); type: cell-based; conditions: Acinetobacter baumannii, NCTC13301, A. baumannii NCTC 13301, without polymyxin B, 2nd experiment, read-out: MBC without PB
[19] = tested on: A. baumannii A473; assay: MIC without and with sub-inhibitory polymyxin B (Example 4); type: cell-based, Acinetobacter baumannii; conditions: Acinetobacter baumannii, A473, A. baumannii A473, without polymyxin B
[20] = tested on: resistant strains of A. baumannii and one strain of Acinetobacter sp.; assay: MIC without and with sub-inhibitory polymyxin B, whole panel / MIC ranges (Example 4; also strains not listed separately); type: cell-based; conditions: Acinetobacter baumannii
[21] = tested on: Acinetobacter spp. H064200250; assay: MIC determination for Acinetobacter strains (Example 3); type: cell-based, Acinetobacter sp.; conditions: LEV R, CIP R, MRP R, IMP I
[22] = tested on: A. baumannii A472; assay: MIC without and with sub-inhibitory polymyxin B (Example 4); type: cell-based, Acinetobacter baumannii; conditions: for MIC: Acinetobacter baumannii, A472, A. baumannii A472, without polymyxin B, read-out: MIC without PB
[23] = tested on: A. baumannii A473; assay: Preliminary MBC without and with sub-inhibitory polymyxin B (Example 4); type: cell-based, Acinetobacter baumannii; conditions: Acinetobacter baumannii, A473, A. baumannii A473, without polymyxin B, read-out: MBC without PB
[24] = Acinetobacter spp. H064200250, 1st experiment
[25] = 1st experiment, read-out: MIC without PB
[26] = 2nd experiment, MIC read with alamar blue, read-out: MIC without PB, read with alamar blue
[27] = 2nd experiment, visual reading, read-out: MIC without PB

MIC ([2]; 1st experiment): 32 µg/mL (≈ 83.4 µM)
MIC ([2]; 2nd experiment, visual reading): 32 µg/mL (≈ 83.4 µM)
MIC [3]: 8 µg/mL (≈ 20.9 µM)
MIC [4]: 8 µg/mL (≈ 20.9 µM)
MIC ([6]; Acinetobacter spp. H064200250 (OXA51), 2nd experiment, visual reading): 16 µg/mL (≈ 41.7 µM)
MIC [6, 24]: 32 µg/mL (≈ 83.4 µM)
MIC [7]: 16 µg/mL (≈ 41.7 µM)
MIC [8]: 32 µg/mL (≈ 83.4 µM)
MIC [10, 25]: 16 µg/mL (≈ 41.7 µM)
MIC [10, 26]: 32 µg/mL (≈ 83.4 µM)
MIC [10, 27]: 16 µg/mL (≈ 41.7 µM)
MIC [11]: 64 µg/mL (≈ 167 µM)
MIC [12]: 32 µg/mL (≈ 83.4 µM)
MIC [15]: 16 µg/mL (≈ 41.7 µM)
MIC ([16]; 1st experiment): 32 µg/mL (≈ 83.4 µM)
MIC ([16]; 2nd experiment, visual reading): 16 µg/mL (≈ 41.7 µM)
MIC [17]: 64 µg/mL
MIC [19, 25]: 16 µg/mL (≈ 41.7 µM)
MIC [19, 26]: 32 µg/mL (≈ 83.4 µM)
MIC [19, 27]: 16 µg/mL (≈ 41.7 µM)
MIC ([20]; NCTC13301, A. baumannii NCTC 13301, without polymyxin B, 1st experiment, read-out: MIC without PB): 32 µg/mL (≈ 83.4 µM)
MIC ([20]; NCTC13301, A. baumannii NCTC 13301, without polymyxin B, 2nd experiment, visual reading, read-out: MIC without PB): 64 µg/mL (≈ 167 µM)
MIC ([20]; read-out: MIC range without PB 01-10-2008 n = 8, without polymyxin B, 1st experiment, 8 strains): 1 to 32 µg/mL (≈ 2.61 to 83.4 µM)
MIC [21]: 32 µg/mL (≈ 83.4 µM)
MIC ratio without/with polymyxin B ([22]; A. baumannii A472, ratio MIC without PB to MIC + PB, PB […], 2nd experiment): ≥ 64 µg/mL
MIC ([22]; 1st experiment): 8 µg/mL (≈ 20.9 µM)
MIC ([22]; 2nd experiment, visual reading): 8 µg/mL (≈ 20.9 µM)
Structure (SMILES): C[C@@H](O)[C@H]1C(=O)N2C(C(=O)O)=C(S[C@@H]3CN[C@H](C(=O)N(C)C)C3)[C@H](C)[C@H]12 [Meropenem, reference compound]
MBC ([1]; Acinetobacter spp. H064200250 (OXA51), 2nd experiment): 16 µg/mL (≈ 41.7 µM)
MBC [1, 24]: 16 µg/mL (≈ 41.7 µM)
MBC [5]: 8 µg/mL (≈ 20.9 µM)
MBC ([9]; 1st experiment): 8 µg/mL (≈ 20.9 µM)
MBC ([9]; 2nd experiment): 8 µg/mL (≈ 20.9 µM)
MBC [13]: 16 µg/mL (≈ 41.7 µM)
MBC ([14]; 1st experiment): 8 µg/mL (≈ 20.9 µM)
MBC ([14]; 2nd experiment): 16 µg/mL (≈ 41.7 µM)
MBC [18]: 64 µg/mL (≈ 167 µM)
MBC ([23]; 1st experiment): 64 µg/mL (≈ 167 µM)
MBC ([23]; 2nd experiment): 16 µg/mL (≈ 41.7 µM)
